Literature values, collected in patent US6423847B1, “Synthesis and clinical uses of D,α-tocopherol nicotinate compounds” (Chronorx, LLC, priority 1999, dated 2002).
Like-named read-outs stand apart in the source and are kept apart here.

What was measured:
[1] = tested on: exogenous glucose utilization by the heart; conditions: normal volunteers, 18F-fluorodeoxyglucose PET
[2] = laboratory mice
[3] = tested on: liver NAD+; poly(ADP-ribose)
[4] = tested on: malonyldialdehyde and superoxide anion levels; conditions: 400 mg once a day, orally for 4 weeks
[5] = tested on: glutathione peroxidase (GSHPx); conditions: following supplementation with DAT
[6] = tested on: human aortic endothelial cells; conditions: human aortic endothelial cells pre-incubated with vitamin E, oxidative stress; increased from 37%

For `O=C(O)c1cccnc1` [Nicotinic acid, nicotinic acid], the “increase in exogenous glucose utilization by the heart” value [1] is given as “two- to three-fold increase”, the “increase in Zn+2 absorption” value ([2]; fasting states) is given as 38.9% and the “increase in Zn+2 absorption” value ([2]; postprandial conditions) is given as 70.9%.

For `NC(=O)c1cccnc1` [nicotinamide], the “liver polyADP-ribose” value ([3]; above control groups) is given as “significantly elevates” and the “liver NAD+” value ([3]; at 1000 mg/kg) is given as “elevations”.

In the case of `Cc1c(C)c2c(c(C)c1O)CC[C@@](C)(CCC[C@H](C)CCC[C@H](C)CCCC(C)C)O2` [vitamin E, D,α-tocopherol], the malonyldialdehyde levels [4] is given as “significantly reduces”, the superoxide anion levels [4] is given as “significantly reduces” and the “glutathione peroxidase (GSHPx) activities” value [5] is given as “increase as much as twofold”. For the same compound, the cell viability [6] was 85%.
